Experimental data reported in publication PMC8304783, “Antiadhesive Properties of Imidazolium Ionic Liquids Based on (−)-Menthol Against Candida spp” (International Journal of Molecular Sciences, 2021).
Like-named read-outs stand apart in the source and are kept apart here.

What was measured:
Format in all cases: cell-based
[1] = test system: C. albicans Gu5; experiment: MIC90 and MFC towards clinical isolates; conditions: Candida albicans
Method: (§1) Experiments were performed according to the Clinical and Laboratory Standards Institute (2008), 3rd ed. M27-A3 [51], with modifications described previously. Briefly, MICs were determined by serially diluting ILs in YPD medium in sterile 96-well plates (Sarstedt) and inoculating with fungal suspensions (final OD600 per well = 0.01). After incubation (48 h; 28 °C), the OD600 was measured (ASYS UVM 340 Biogenet). […] Each well was then replated on YPD agar and incubated for 5 days at 28 °C.
(§2) The effect of imidazolium ILs based on of (1R,2S,5R)‐(−)‐menthol was evaluated on clinical, fluconazole(FLC)‐resistant and FLC‐sensitive C. albicans isolates. C. albicans Gu4 and Gu5 strains were isolated from a patient before and after fluconazole administration, respectively.
(§3) Azole‐resistance of Gu5 origins in overexpression of CDR1 and CD R2. C. albicans B3 and B4 strains […]
(§4) Azole‐resistance of B4 results from overexpression of MDR1. The strains were generous gifts from Prof. S. Milewski (Gdańsk, Poland) and Prof. J. Morschhäuser (Wurzburg, Germany). They are originally referenced in: Franz, R., Ruhnke, M. & Morschhäuser, J. Molecular aspects of fluconazole resistance development in Candida albicans. Mycoses 42, 453–458, (1999).
(§5) Table S1 summarizes the minimal inhibitory and fungicidal concentration (MIC90 and MFC, respectively) values of ILs tested against the C. albicans isolates (for ILs structures see section 5.2. in the mai n text). No difference in case of MIC90 values between the strains was observed. However, MFC values were two‐fold lower for the compounds 1b and 2a in case of B3 and B4 isolates. The MFC value of the compound 1a wa s two‐fold higher on ly in ca se of Gu5 strain.
(§6) Table S1. Minimal inhibitory concentrations (MIC90; μM) and minimal fungicidal concentrations (MFC; μM) of ionic liquids (ILs ) or fluconazole (FLC) towards clinical C. albicans isolates.

[2] = test system: C. albicans Gu4; experiment: MIC90 and MFC towards clinical isolates; conditions: Candida albicans, clinical isolate Gu4 (FLC-sensitive); for MFC: read-out: Minimal fungicidal concentration (MFC); for MIC90: read-out: Minimal inhibitory concentration (MIC90)
Method: as §1, §2, §3, §4, §5, §6

[3] = test system: C. albicans B3; experiment: MIC90 and MFC towards clinical isolates; conditions: Candida albicans, clinical isolate B3 (FLC-sensitive); for MFC: read-out: Minimal fungicidal concentration (MFC); for MIC90: read-out: Minimal inhibitory concentration (MIC90)
Method: as §1, §2, §3, §4, §5, §6

[4] = test system: C. albicans B4; experiment: MIC90 and MFC towards clinical isolates; conditions: Candida albicans
Method: as §1, §2, §3, §4, §5, §6

[5] = test system: C. glabrata ATCC90030; experiment: Minimal inhibitory and fungicidal concentrations (broth microdilution, CLSI M27-A3 modified); conditions: Nakaseomyces glabratus, 28 °C; for MFC: 120 h, replated on YPD agar, 5 days, read-out: Minimal fungicidal concentration (MFC); for MIC90: ≥90% growth inhibition, 48 h, YPD, read-out: Minimal inhibitory concentration (MIC90)
Method: as §1

[6] = test system: C. parapsilosis CBS10947; experiment: as above; conditions: Lodderomyces parapsilosis, 28 °C; for MFC: 120 h, replated on YPD agar, 5 days, read-out: Minimal fungicidal concentration (MFC); for MIC90: ≥90% growth inhibition, 48 h, YPD, read-out: Minimal inhibitory concentration (MIC90)
Method: as §1

[7] = test system: C. krusei ATCC6258; experiment: as above; conditions: Pichia kudriavzevii, 28 °C; for MFC: 120 h, replated on YPD agar, 5 days, read-out: Minimal fungicidal concentration (MFC); for MIC90: ≥90% growth inhibition, 48 h, YPD, read-out: Minimal inhibitory concentration (MIC90)
Method: as §1

[8] = test system: C. albicans SC5314; experiment: as above; conditions: Candida albicans, 28 °C; for MFC: 120 h, replated on YPD agar, 5 days, read-out: Minimal fungicidal concentration (MFC); for MIC90: ≥90% growth inhibition, 48 h, YPD, read-out: Minimal inhibitory concentration (MIC90)
Method: as §1

[9] = test system: sheep erythroid PMs; experiment: Hemolysis assay; conditions: sheep RBCs
Method: To examine any possible toxic effect towards animal cells, ILs were tested for their lytic activity on sheep erythroid PMs, in comparison to AMB (Table 3). For this part of study, higher concentrations were selected, corresponding to MFC values of tested fungi (12.5; 25 and 50 µM in case of ILs, and 0.25; 0.5 and 1 µM in case of AMB, Table 1). The compounds were ranked in terms of hemolytic activity as follows: 1a > 1b > 2a. IL with alkoxymethyl chain (2a) produced <5% hemolysis, regardless of the concentration used. Compounds with alkyl substituents (1a and 1b) were more hemolytic in 12.5 than in 25 µM concentrations, and in the highest concentration (50 µM), both compounds produced >10% and >5% hemolysis, respectively.
ILs were tested for hemolytic activity, as described previously. Briefly, 5 mL of fresh sheep blood was centrifuged (2000 rpm, 15 min), washed with PBS and resuspended in PBS to achieve hematocrit level of 50%. Red blood cells (RBCs) were treated with ILs (concentrations = 12.5, 25 and 50 µM) for 2 h at 37 °C. Afterwards, RBCs were centrifuged (2000 rpm, 5 min) and the absorbance of the supernatant was measured at 540 nm (ASYS UVM 340 Biogenet). The percentage of hemolysis was determined in comparison to the hemoglobin absorbance released by a 1% SDS solution (100% hemolysis).

[10] = ILs conc. 12.5 µM, 2 h, 37 °C, 1% SDS = 100% hemolysis
[11] = ILs conc. 25 µM, 2 h, 37 °C, 1% SDS = 100% hemolysis
[12] = ILs conc. 50 µM, 2 h, 37 °C, 1% SDS = 100% hemolysis
[13] = GU5, read-out: Minimal fungicidal concentration (MFC)
[14] = GU5, read-out: Minimal inhibitory concentration (MIC90)
[15] = B4, read-out: Minimal fungicidal concentration (MFC)
[16] = B4, read-out: Minimal inhibitory concentration (MIC90)

CCCCCCCCCn1cc[n+](CO[C@@H]2C[C@H](C)CC[C@H]2C(C)C)c1 [1a, 1-[(1R,2S,5R)-(−)-menthoxymethyl]-3-nonylimidazolium chloride] showed an MFC ([1]; clinical isolate Gu5 (FLC-resistant, CDR1/CDR2 overexpression), read-out: Minimal fungicidal concentration (MFC)) of 50 µM, an MIC90 ([1]; clinical isolate Gu5 (FLC-resistant, CDR1/CDR2 overexpression), read-out: Minimal inhibitory concentration (MIC90)) of 12.5 µM and an MFC [2] of 25 µM. The MIC90 [2] was 12.5 µM, the MFC [3] was 25 µM and the MIC90 [3] was 12.5 µM. It also gave an MFC ([4]; clinical isolate B4 (FLC-resistant, MDR1 overexpression), read-out: Minimal fungicidal concentration (MFC)) of 25 µM, an MIC90 ([4]; clinical isolate B4 (FLC-resistant, MDR1 overexpression), read-out: Minimal inhibitory concentration (MIC90)) of 12.5 µM and an MFC [5] of 25 µM. The MIC90 [5] was 12.5 µM, the MFC [6] was 50 µM and the MIC90 [6] was 12.5 µM. It also gave an MFC [7] of 25 µM, an MIC90 [7] of 6.25 µM and an MFC [8] of 50 µM. It also gave an MIC90 [8] of 12.5 µM, a Hemolytic activity [9, 10] of 4.81 ± 0.02 % and a Hemolytic activity [9, 11] of 1.51 ± 0.53%. It also gave a Hemolytic activity [9, 12] of 11.56 ± 2.13%.
CCCCCCCCCCn1cc[n+](CO[C@@H]2C[C@H](C)CC[C@H]2C(C)C)c1 [1b, 3-decyl-1-[(1R,2S,5R)-(−)-menthoxymethyl]imidazolium chloride] showed an MFC [1, 13] of 50 µM, an MIC90 [1, 14] of 25 µM and an MFC [2] of 50 µM. The MIC90 [2] was 25 µM, the MFC [3] was 25 µM and the MIC90 [3] was 25 µM. For the same compound, the MFC [4, 15] was 25 µM, the MIC90 [4, 16] was 25 µM and the MFC [5] was 25 µM. It also gave an MIC90 [5] of 25 µM, an MFC [6] of 25 µM and an MIC90 [6] of 25 µM. It also gave an MFC [7] of 25 µM, an MIC90 [7] of 25 µM and an MFC [8] of 50 µM. For the same compound, the MIC90 [8] was 25 µM, the Hemolytic activity [9, 10] was 2.1 ± 0.36% and the Hemolytic activity [9, 11] was 3.01 ± 0.39%. For the same compound, the Hemolytic activity [9, 12] was 3.23 ± 0.6%.
CCCCCCCCCOCn1cc[n+](CO[C@@H]2C[C@H](C)CC[C@H]2C(C)C)c1 [2a, 1-(1R,2S,5R)-(−)-menthoxymethyl-3-nonyloxymethylimidazolium chloride] gave an MFC [1, 13] of 25 µM, an MIC90 [1, 14] of 12.5 µM and an MFC [2] of 25 µM. The MIC90 [2] was 12.5 µM, the MFC [3] was 12.5 µM and the MIC90 [3] was 12.5 µM. It also gave an MFC [4, 15] of 12.5 µM, an MIC90 [4, 16] of 12.5 µM and an MFC [5] of 12.5 µM. It also gave an MIC90 [5] of 12.5 µM, an MFC [6] of 25 µM and an MIC90 [6] of 12.5 µM. It also gave an MFC [7] of 12.5 µM, an MIC90 [7] of 6.25 µM and an MFC [8] of 25 µM. It also gave an MIC90 [8] of 12.5 µM, a Hemolytic activity [9, 10] of 4.55 ± 0.82% and a Hemolytic activity [9, 11] of 1.78 ± 0.44%. For the same compound, the Hemolytic activity [9, 12] was 6.09 ± 0.48 % and the Hemolytic activity ([9]; regardless of the concentration used (12.5; 25 and 50 µM)) was < 5%.
